Tested on: DMS-114 complex spheroids with HUVEC/MSC, growth % test/control
Assay: Anticancer human tumor DMS-114 cell line growth inhibition [AhR];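 further: spheroids exposed to agents for 7 days before readout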;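 on viability, T/C: 100% = DMSO vehicle control wells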
Settings: for IC50: curve of first compound; for viability, T/C: stronger effect = lower value
Source text: Multicellular complex tumor spheroid response to aryl hydrocarbon receptor antagonists in combination with a variety of drugs and investigational agents in selected tumor cell lines
The current study was undertaken to assess response to aryl hydrocarbon receptor antagonists in combination with standard-of-care drugs and investigational agents in solid tumor complex spheroid models. Complex spheroids include a stromal component modeled by human endothelial cells (HUVEC) and fibroblasts modeled by human mesenchymal stem cells (MSCs). The concentration ranges selected for each drug and investigational agent were based upon clinically achievable concentrations if the clinical Cmax of the agent was known.
Compounds. The drugs and investigational agents: BAY 2416964 (NSC825713), GNF351 (NSC835774), CH-223191 (NSC835775), CPI-455 (NSC825282), aza-TdCyd (NSC777586), decitabine (NSC127716), belinostat (NSC758774), entinostat (NSC756642), pevonedistat (NSC761192), tazemetostat (NSC777109), talazoparib (NSC765396), olaparib (NSC753686), selinexor (NSC780203), nedisertib (M3814, NSC802822), bortezomib (NSC756655), venetoclax (NSC766270), doxorubicin (NSC123127), elimusertib (BAY189344, NSC800525), ceralasertib (AZD6738, NSC777638), TAK-243 (NSC785004), alisertib (NSC759677), etoposide (NSC141540), topotecan (NSC609699), eribulin (NSC707389), gemcitabine (NSC613327), carboplatin (NSC241240), cisplatin (NSC119875), and SN-38 (NSC673596) were obtained from the National Cancer Institute (NCI) Developmental Therapeutics Program Chemical Repository (32). The FDA-approved anticancer drug set is available from the Developmental Therapeutics Program at https://dtp.cancer.gov/organization/dscb/obtaining/available plates.htm. […] The stock solutions were prepared in dimethyl sulfoxide (DMSO, Sigma-Aldrich, St. Louis, MO, cat. D2650), except for the platinum compounds which were prepared in saline (Quality Biological, Gaithersburg, MD, cat. 114-055-101), at 800-fold the tested concentration and stored at -70 degrees C prior to their use. All drugs and investigational agents were tested over a range starting from a high concentration at or near the clinical Cmax and decreasing in half-log increments. If the clinical Cmax for an agent had not been determined, the highest concentration tested was 10 microM (Table 1).
Cell Culture. All cells were maintained in an incubator at 37 degrees C and 5% CO2 with 95% humidity. The PDC lines were cultured according to standard operating procedures established by the NCI PDMR (https://pdmr.cancer.gov). Briefly, all PDCs were thawed and cultured in Matrigel-coated flasks prepared with a working solution of 1X Ham's F-12 nutrient mix, without supplementation (Invitrogen, Waltham, MA, cat. 11765054), 100 U/mL penicillin-streptomycin (Invitrogen, cat. 15140122), and 2.5% Matrigel (Corning Inc., Corning, NY, cat. 354248) for the first three passages. All PDCs were cultured in complete DMEM/F-12 media containing advanced DMEM/F-12 (Invitrogen, cat. 12634028), 4.9% defined fetal bovine serum, heat inactivated (HyClone Laboratories Inc., Logan, UT, cat. SH30070.03HI), 389 ng/mL hydrocortisone (Sigma-Aldrich, cat. H4001), 9.7 ng/mL human EGF recombinant protein (Invitrogen, cat. PHG0313), 23.4 microg/mL adenine (Sigma-Aldrich, cat. A2786), 97.3 U/mL penicillin-streptomycin (Invitrogen, cat. 15140122), 1.9 mM L-glutamine (Invitrogen, cat. 25030081), and 9.7 microM Y-27632 dihydrochloride (Tocris Bioscience, Bristol, United Kingdom, cat. 1254). The PDCs were cultured in complete DMEM/F12 media without 10 microM Y-27632 dihydrochloride for at least two passages prior to the screen. The established cell lines NCI-H1341 and […] were cultured in DMEM/F-12, HEPES (Invitrogen, cat. 11330032), 5% defined fetal bovine serum (HyClone Laboratories Inc., cat. SH30070.03), ITS premix universal culture supplement [insulin (5 microg/mL), transferrin (5 microg/mL), and selenious acid (5 ng/mL)] […]

CC(C)CC(NC(=O)C(Cc1ccccc1)NC(=O)c1cnccn1)B(O)O (stereo not given) + CC(CO)NC(=O)c1cc(-c2ccc(Cl)cc2)nn(-c2cnn(C)c2)c1=O
IC50 (second compound 0.1 µM): 3.61 nM
IC50 (second compound 0.316 µM): 4.04 nM
IC50 (second compound 1 µM): 3.33 nM
IC50 (second compound 3.16 µM): 3.29 nM
IC50 (second compound 10 µM): 4.34 nM
viability, T/C (second compound 0.1 µM, first compound 0.000949 µM): 100%
viability, T/C (second compound 0.1 µM, first compound 0.003 µM): 59.4%
viability, T/C (second compound 0.1 µM, first compound 0.00949 µM): 0.72%
viability, T/C (second compound 0.1 µM, first compound 0.03 µM): 0.35%
viability, T/C (second compound 0.1 µM, first compound 0.0949 µM): 0.11%
viability, T/C (second compound 0.1 µM, first compound 0.3 µM): 0.29%
viability, T/C (second compound 0.316 µM, first compound 0.000949 µM): 95.5%
viability, T/C (second compound 0.316 µM, first compound 0.003 µM): 66.8%
viability, T/C (second compound 0.316 µM, first compound 0.00949 µM): 1.94%
viability, T/C (second compound 0.316 µM, first compound 0.03 µM): 0.05%
viability, T/C (second compound 0.316 µM, first compound 0.0949 µM): 0.3%
viability, T/C (second compound 0.316 µM, first compound 0.3 µM): 0.42%
viability, T/C (second compound 1 µM, first compound 0.000949 µM): 113%
viability, T/C (second compound 1 µM, first compound 0.003 µM): 54.8%
viability, T/C (second compound 1 µM, first compound 0.00949 µM): 1.26%
viability, T/C (second compound 1 µM, first compound 0.03 µM): 0.32%
viability, T/C (second compound 1 µM, first compound 0.0949 µM): 0.11%
viability, T/C (second compound 1 µM, first compound 0.3 µM): 0.25%
viability, T/C (second compound 3.16 µM, first compound 0.000949 µM): 85.7%
viability, T/C (second compound 3.16 µM, first compound 0.003 µM): 54.4%
viability, T/C (second compound 3.16 µM, first compound 0.00949 µM): 0.8%
viability, T/C (second compound 3.16 µM, first compound 0.03 µM): 0.07%
viability, T/C (second compound 3.16 µM, first compound 0.0949 µM): 0.76%
viability, T/C (second compound 3.16 µM, first compound 0.3 µM): 0.17%
viability, T/C (second compound 10 µM, first compound 0.000949 µM): 99%
viability, T/C (second compound 10 µM, first compound 0.003 µM): 72.8%
viability, T/C (second compound 10 µM, first compound 0.00949 µM): 1.52%
viability, T/C (second compound 10 µM, first compound 0.03 µM): 0.2%
viability, T/C (second compound 10 µM, first compound 0.0949 µM): 0.15%
viability, T/C (second compound 10 µM, first compound 0.3 µM): 0.26%

Nc1ccccc1NC(=O)c1ccc(CNC(=O)OCc2cccnc2)cc1 + CC(CO)NC(=O)c1cc(-c2ccc(Cl)cc2)nn(-c2cnn(C)c2)c1=O
IC50 (second compound 0.1 µM): 749 nM
IC50 (second compound 0.316 µM): 782 nM
IC50 (second compound 1 µM): 726 nM
IC50 (second compound 3.16 µM): 650 nM
IC50 (second compound 10 µM): 813 nM
viability, T/C (second compound 0.1 µM, first compound 0.0316 µM): 87.3%
viability, T/C (second compound 0.1 µM, first compound 0.1 µM): 85.8%
viability, T/C (second compound 0.1 µM, first compound 0.316 µM): 68.2%
viability, T/C (second compound 0.1 µM, first compound 1 µM): 43.6%
viability, T/C (second compound 0.1 µM, first compound 3.16 µM): 23.1%
viability, T/C (second compound 0.1 µM, first compound 10 µM): 13.4%
viability, T/C (second compound 0.316 µM, first compound 0.0316 µM): 87%
viability, T/C (second compound 0.316 µM, first compound 0.1 µM): 89.7%
viability, T/C (second compound 0.316 µM, first compound 0.316 µM): 76.4%
viability, T/C (second compound 0.316 µM, first compound 1 µM): 42.3%
viability, T/C (second compound 0.316 µM, first compound 3.16 µM): 20.6%
viability, T/C (second compound 0.316 µM, first compound 10 µM): 13.5%
viability, T/C (second compound 1 µM, first compound 0.0316 µM): 91.2%
viability, T/C (second compound 1 µM, first compound 0.1 µM): 87.6%
viability, T/C (second compound 1 µM, first compound 0.316 µM): 73.4%
viability, T/C (second compound 1 µM, first compound 1 µM): 39.8%
viability, T/C (second compound 1 µM, first compound 3.16 µM): 24.6%
viability, T/C (second compound 1 µM, first compound 10 µM): 14.8%
viability, T/C (second compound 3.16 µM, first compound 0.0316 µM): 92.8%
viability, T/C (second compound 3.16 µM, first compound 0.1 µM): 75.4%
viability, T/C (second compound 3.16 µM, first compound 0.316 µM): 68.5%
viability, T/C (second compound 3.16 µM, first compound 1 µM): 40.1%
viability, T/C (second compound 3.16 µM, first compound 3.16 µM): 23.2%
viability, T/C (second compound 3.16 µM, first compound 10 µM): 14.8%
viability, T/C (second compound 10 µM, first compound 0.0316 µM): 90%
viability, T/C (second compound 10 µM, first compound 0.1 µM): 87.7%
viability, T/C (second compound 10 µM, first compound 0.316 µM): 69.2%
viability, T/C (second compound 10 µM, first compound 1 µM): 45.8%
viability, T/C (second compound 10 µM, first compound 3.16 µM): 24.9%
viability, T/C (second compound 10 µM, first compound 10 µM): 14.4%
